Drawing on publication PMC7948503, “Optimization of a peptide ligand for the adhesion GPCR ADGRG2 provides a potent tool to explore receptor biology” (The Journal of Biological Chemistry, 2020), this text covers EC50 for one molecule.

Non-standard residues stand in square brackets, D forms with d. Residues, ends and D or L forms follow the SMILES beside them. Phe(4-Me) = Cc1ccc(C[C@H](N)C(=O)O)cc1

What all share (assay): GloSensor cAMP assay
Holding throughout (type): cell-based

One assay concerns the target T1, ADGRG2-ΔGPS-β I730A (Mus musculus, UniProt Q8CJ12, I744A).
T1 construct: expressed in transfected cells; host or cells: HEK293
Conditions: mutant I730A; HEK293, cAMP Glosensor. From the text:
(§1) Wildtype ADGRG2 full-length (ADGRG2-FL) was cloned from mouse total cDNA libraries using the following primers: forward, […]; reverse, […], and then ADGRG2-FL, ADGRG2 C-terminal truncation mutant (ADGRG2-β), and ADGRG2-ΔGPS-β (the entire ECD of ADGRG2 was deleted) were subcloned into the pcDNA3.1 expression vector. The ADGRG2-ΔGPS-β mutants (T610A, Y611A, C614A, S661A, W662A, I663A, L665A, Y666A，N667A, F671A, L679A, L683A, I730A, V731A, F741A, F747A, W757A, I758A, N759A, S760A, V762A, F764A, Y765A, V768A, V769A, F772A, V774A, W824A, F826A, F828A, F829A, V834A, V836A, F838A, M839A, I844A, F845A) were generated using a QuikChange Mutagenesis Kit (Stratagene). All mutations were verified by DNA sequencing.
(§2) The Glosensor cAMP assay was performed as described ([6], [39], [40]). HEK293 cells were transfected with the GloSensor plasmid and the desired expression plasmids in 24-well dishes. Twenty-four hours after transfection, the cells were plated on 96-well plates at a cell density of 20,000 cells/well. The cells were maintained in Dulbecco’s modified Eagle’s medium for another 24 h, washed with PBS, and then incubated with 100 μl of solution containing 10% fetal bovine serum, 2% (v/v) GloSensor cAMP reagent, and 88% CO2-independent medium in each well for 2 h. The cAMP signal was examined using a luminescence counter (Mithras LB 940).

Another assay deals with T2, ADGRG2-ΔGPS-β C614A (Mus musculus, UniProt Q8CJ12, C628A).
T2 construct: expressed in transfected cells; host or cells: HEK293
Conditions: mutant C614A; HEK293, cAMP Glosensor.
Description: as §1, §2

A further assay deals with T3, ADGRG2-ΔGPS-β W662A (Mus musculus, UniProt Q8CJ12, W676A).
T3 construct: expressed in transfected cells; host or cells: HEK293
The conditions noted are these: mutant W662A; HEK293, cAMP Glosensor.
Description: as §1, §2

For a further assay, the target named is T4, ADGRG2-ΔGPS-β F747A (Mus musculus, UniProt Q8CJ12, F761A).
T4 construct: expressed in transfected cells; host or cells: HEK293
The conditions noted are these: mutant F747A; HEK293, cAMP Glosensor.
Description: as §1, §2

The target of another assay is T5, ADGRG2-ΔGPS-β Y611A (Mus musculus, UniProt Q8CJ12, Y625A).
T5 construct: expressed in transfected cells; host or cells: HEK293
The conditions noted are these: mutant Y611A; HEK293, cAMP Glosensor.
Description: as §1, §2

The next assay has as its target T6, ADGRG2-ΔGPS-β F764A (Mus musculus, UniProt Q8CJ12, F778A).
T6 construct: expressed in transfected cells; host or cells: HEK293
The conditions noted are these: mutant F764A; HEK293, cAMP Glosensor.
Description: as §1, §2

The target of another assay is T7, ADGRG2-ΔGPS-β Y666A (Mus musculus, UniProt Q8CJ12, Y680A).
T7 construct: expressed in transfected cells; host or cells: HEK293
The conditions noted are these: mutant Y666A; HEK293, cAMP Glosensor.
Description: as §1, §2

In a further assay the target is T8, ADGRG2-ΔGPS-β W757A (Mus musculus, UniProt Q8CJ12, W771A).
T8 construct: expressed in transfected cells; host or cells: HEK293
The conditions noted are these: mutant W757A; HEK293, cAMP Glosensor.
Description: as §1, §2

For a further assay, the target named is T9, ADGRG2-ΔGPS-β M839A (Mus musculus, UniProt Q8CJ12, M853A).
T9 construct: expressed in transfected cells; host or cells: HEK293
Conditions: mutant M839A; HEK293, cAMP Glosensor.
Description: as §1, §2

In a further assay the target is T10, ADGRG2-ΔGPS-β V731A (Mus musculus, UniProt Q8CJ12, V745A).
T10 construct: expressed in transfected cells; host or cells: HEK293
The conditions noted are these: mutant V731A; HEK293, cAMP Glosensor.
Description: as §1, §2

A further assay addresses T11, ADGRG2-ΔGPS-β N759A (Mus musculus, UniProt Q8CJ12, N773A).
T11 construct: expressed in transfected cells; host or cells: HEK293
Conditions: mutant N759A; HEK293, cAMP Glosensor.
Description: as §1, §2

The target in a further assay is T12, ADGRG2-ΔGPS-β L679A (Mus musculus, UniProt Q8CJ12, L693A).
T12 construct: expressed in transfected cells; host or cells: HEK293
Conditions: mutant L679A; HEK293, cAMP Glosensor.
Description: as §1, §2

For a further assay, the target named is T13, ADGRG2-ΔGPS-β Y765A (Mus musculus, UniProt Q8CJ12, Y779A).
T13 construct: expressed in transfected cells; host or cells: HEK293
Conditions: mutant Y765A; HEK293, cAMP Glosensor.
Description: as §1, §2

A further assay addresses T14, ADGRG2-ΔGPS-β S760A (Mus musculus, UniProt Q8CJ12, S774A).
T14 construct: expressed in transfected cells; host or cells: HEK293
The conditions noted are these: mutant S760A; HEK293, cAMP Glosensor.
Description: as §1, §2

Another assay concerns the target T15, ADGRG2-ΔGPS-β F829A (Mus musculus, UniProt Q8CJ12, F843A).
T15 construct: expressed in transfected cells; host or cells: HEK293
Conditions: mutant F829A; HEK293, cAMP Glosensor.
Description: as §1, §2

The target in the next assay is T16, ADGRG2-ΔGPS-β F828A (Mus musculus, UniProt Q8CJ12, F842A).
T16 construct: expressed in transfected cells; host or cells: HEK293
Conditions: mutant F828A; HEK293, cAMP Glosensor.
Description: as §1, §2

Another assay addresses T17, ADGRG2-ΔGPS-β V836A (Mus musculus, UniProt Q8CJ12, V850A).
T17 construct: expressed in transfected cells; host or cells: HEK293
Conditions: mutant V836A; HEK293, cAMP Glosensor.
Description: as §1, §2

The next assay concerns the target T18, ADGRG2-ΔGPS-β F671A (Mus musculus, UniProt Q8CJ12, F685A).
T18 construct: expressed in transfected cells; host or cells: HEK293
The conditions noted are these: mutant F671A; HEK293, cAMP Glosensor.
Description: as §1, §2

Another assay concerns the target T19, ADGRG2-ΔGPS-β F845A (Mus musculus, UniProt Q8CJ12, F859A).
T19 construct: expressed in transfected cells; host or cells: HEK293
Conditions: mutant F845A; HEK293, cAMP Glosensor.
Description: as §1, §2

The target of the next assay is T20, ADGRG2-ΔGPS-β I844A (Mus musculus, UniProt Q8CJ12, I858A).
T20 construct: expressed in transfected cells; host or cells: HEK293
Conditions: mutant I844A; HEK293, cAMP Glosensor.
Description: as §1, §2

T3 sequence (Q8CJ12 614-1009 W676A): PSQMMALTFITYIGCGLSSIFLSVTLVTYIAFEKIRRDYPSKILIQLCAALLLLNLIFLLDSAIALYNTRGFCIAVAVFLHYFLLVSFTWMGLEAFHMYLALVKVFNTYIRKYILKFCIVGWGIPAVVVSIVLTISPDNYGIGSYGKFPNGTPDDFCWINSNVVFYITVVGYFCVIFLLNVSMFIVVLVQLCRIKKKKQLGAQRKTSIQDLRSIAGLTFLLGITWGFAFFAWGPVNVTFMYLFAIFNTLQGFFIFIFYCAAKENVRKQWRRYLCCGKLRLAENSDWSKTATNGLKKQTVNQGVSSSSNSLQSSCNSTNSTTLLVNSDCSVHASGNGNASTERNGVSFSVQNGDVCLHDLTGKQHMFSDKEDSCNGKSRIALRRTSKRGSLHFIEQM
T9 sequence (Q8CJ12 614-1009 M853A): as the sequence (Q8CJ12 614-1009 W676A) above, with A63W, M240A counted along it
T14 sequence (Q8CJ12 614-1009 S774A): as the sequence (Q8CJ12 614-1009 W676A) above, with A63W, S161A counted along it
T15 sequence (Q8CJ12 614-1009 F843A): as the sequence (Q8CJ12 614-1009 W676A) above, with A63W, F230A counted along it
T11 sequence (Q8CJ12 614-1009 N773A): as the sequence (Q8CJ12 614-1009 W676A) above, with A63W, N160A counted along it
T19 sequence (Q8CJ12 614-1009 F859A limits assumed): as the sequence (Q8CJ12 614-1009 W676A) above, with A63W, F246A counted along it
T17 sequence (Q8CJ12 614-1009 V850A): as the sequence (Q8CJ12 614-1009 W676A) above, with A63W, V237A counted along it
T4 sequence (Q8CJ12 614-1009 F761A): as the sequence (Q8CJ12 614-1009 W676A) above, with A63W, F148A counted along it
T10 sequence (Q8CJ12 614-1009 V745A): as the sequence (Q8CJ12 614-1009 W676A) above, with A63W, V132A counted along it
T12 sequence (Q8CJ12 614-1009 L693A): as the sequence (Q8CJ12 614-1009 W676A) above, with A63W, L80A counted along it
T8 sequence (Q8CJ12 614-1009 W771A): as the sequence (Q8CJ12 614-1009 W676A) above, with A63W, W158A counted along it
T7 sequence (Q8CJ12 614-1009 Y680A): as the sequence (Q8CJ12 614-1009 W676A) above, with A63W, Y67A counted along it
T6 sequence (Q8CJ12 614-1009 F778A): as the sequence (Q8CJ12 614-1009 W676A) above, with A63W, F165A counted along it
T16 sequence (Q8CJ12 614-1009 F842A): as the sequence (Q8CJ12 614-1009 W676A) above, with A63W, F229A counted along it
T2 sequence (Q8CJ12 614-1009 C628A): as the sequence (Q8CJ12 614-1009 W676A) above, with C15A, A63W counted along it
T5 sequence (Q8CJ12 614-1009 Y625A): as the sequence (Q8CJ12 614-1009 W676A) above, with Y12A, A63W counted along it
T1 sequence (Q8CJ12 614-1009 I744A): as the sequence (Q8CJ12 614-1009 W676A) above, with A63W, I131A counted along it
T18 sequence (Q8CJ12 614-1009 F685A): as the sequence (Q8CJ12 614-1009 W676A) above, with A63W, F72A counted along it
T20 sequence (Q8CJ12 614-1009 I858A): as the sequence (Q8CJ12 614-1009 W676A) above, with A63W, I245A counted along it

Consider `CC[C@H](C)[C@H](NC(=O)CNC(=O)[C@H](Cc1ccc(C)cc1)NC(=O)[C@H](CO)NC(=O)[C@@H](N)C(C)C)C(=O)N[C@@H](CC(C)C)C(=O)N[C@@H](CC(C)C)C(=O)N[C@@H](CC(=O)O)C(=O)N[C@@H](CC(C)C)C(=O)N[C@@H](CO)C(=O)N[C@@H](CCCNC(=N)N)C(=O)N[C@H](C(=O)N[C@@H](CO)C(=O)N[C@@H](CC(C)C)C(=O)N1CCC[C@H]1C(=O)O)[C@@H](C)O` [VPM-p15] (H-VS[Phe(4-Me)]GILLDLSRTSLP-OH), for which the EC50 on ADGRG2-ΔGPS-β I730A was found to be 1.33 µM; on ADGRG2-ΔGPS-β C614A, 2.17 µM; on ADGRG2-ΔGPS-β W662A it was 1.55 µM; at ADGRG2-ΔGPS-β F747A, 1.13 µM; at ADGRG2-ΔGPS-β Y611A, 1.06 µM; on ADGRG2-ΔGPS-β F764A, 0.938 µM. In addition, the EC50 at ADGRG2-ΔGPS-β Y666A was 1.13 µM; at ADGRG2-ΔGPS-β W757A it was 14.2 µM; on ADGRG2-ΔGPS-β M839A, 1.72 µM; on ADGRG2-ΔGPS-β V731A, 1.22 µM; at ADGRG2-ΔGPS-β N759A, 4.76 µM; on ADGRG2-ΔGPS-β L679A, 1.16 µM. In addition, the EC50 on ADGRG2-ΔGPS-β Y765A amounted to 1.07 µM; at ADGRG2-ΔGPS-β S760A, 1.95 µM; at ADGRG2-ΔGPS-β F829A it was 1.16 µM; at ADGRG2-ΔGPS-β F828A, 3.88 µM; on ADGRG2-ΔGPS-β V836A, 4.13 µM; on ADGRG2-ΔGPS-β F671A, 1.2 µM. In addition, the results for the EC50 at ADGRG2-ΔGPS-β F845A and on ADGRG2-ΔGPS-β I844A were 3.21 µM and 12.9 µM, respectively.
